Assay results taken from patent US20050043515A1, “Tobacco-specific nitrosamine detection assays and reagents” (priority 2003, published 2005).
Where two headings read alike, the source gives them in different places.

What was measured:
[1] = tested on: monoclonal antibody 245J15; assay: Competitive ELISA for total TSNAs using monoclonal antibody 245J15; type: binding, mice
Description: (§1) Microtiter plates (Nunc, Maxisorp) were coated by adding 100 μl per well of goat anti mouse IgG Fc specific (Jackson Immunoresearch, West Grove, Pa.) at 2.5 micrograms per milliliter (μg/ml) in phosphate buffered saline (Sigma Chemical Co.) and allowing the solution to sit overnight. The next day, contents were discarded and unreacted sites on the plastic wells were blocked with 300 μl per well of PBT (1% Bovine Serum Albumen (Sigma Chemical Co.), 0.05% Tween 20 (Sigma Chemical Co.) in PBS) for one hour. Contents were again discarded and 100 μl was added per well of a 1/10,000 dilution of hybridoma culture supernatant of monoclonal antibody 245B5. Wells were then incubated one hour at room temperature. Contents of the wells were again discarded and wells washed three times with PBS with 0.05% Tween (PT). Aliquots containing 50 μl of test compounds diluted in PBT were added to the wells in duplicate, followed in less than five minutes by 50 μl of NNK conjugated to horseradish peroxidase (5 μg of horseradish peroxidase/ml). Wells were incubated for one hour at room temperature, after which they were washed six times with PT and excess liquid removed by tapping. A 100 μl aliquot of a peroxide/3,3′,5,5′-tetramethylbenzidine substrate/chromagen (Catalog # TMBUS, Moss Corporation, Pasadena, Md.) was added. Color was read at 650 nm after fifteen minutes in a microplate reader (SpectraMax Plus, Molecular Devices, Sunnyvale, Calif.). The presence of a TSNA reactive with monoclonal antibody 245B5 caused a decrease in the strength of the color signal.
A total TSNA assay was developed for monoclonal antibody 245J15.
Each analyte was obtained from the source identified in Example 3.
(§2) The affinity of monoclonal antibodies 245B5 and 245J15 to the N-nitroso group on compounds was evaluated using the immunoassay of Example 3 and the immunoassay of Example 4. Parent compounds lacking nitroso groups but having secondary amine groups were run in the immunoassays as previously described. Identical immunoassays were also conducted for compounds that were identical with the parent compounds except that for the addition of the nitroso group to the secondary amine in the compounds. NNN, NAT, and NAB are all examples of TSNAs. N-nitrosopyrollidine may be found in tobacco smoke, but is not a TSNA.

[2] = tested on: monoclonal antibody 245B5; assay: Competitive ELISA for NNK using monoclonal antibody 245B5; type: binding, mice; conditions: for % Crossreactivity: NNK amount for 50% inhibition divided by test compound amount, x100
Description: as §1
TSNAs were purchased from Toronto Research Chemicals. […] The y-axis is B/Bo, which is the amount of color at 650 nm obtained in the presence of the compound divided by the amount of color obtained when no competing compound is present.
as §2

[3] = tested on: rabbit antisera raised against NNK oxime derivative conjugates; type: binding, New Zealand White Rabbits; conditions: one rabbit; for Crossreactivity at the 50% point: relative to NNK
Description: NNK oxime derivatives were prepared and conjugated to KLH and BSA as described in Example 1. The conjugates were diluted in complete Freund's adjuvant to prepare a 1:1 solution of conjugate:adjuvant. New Zealand White Rabbits (6 to 12 months of age) were immunized by injection with the suspension. Rabbits received two booster injections of the same conjugate/adjuvant at one month and two months after initial injection. At three months time, point test bleeds were tested against microtiter plates coated with oxime-derivatized NNK prepared and conjugated to ovalbumen using procedures described in Example 1.
All of these rabbits were used individually to produce competitive assays, as described in Example 3, with the exceptions that a 1:250,000 dilution of antisera in PBT was substituted for the supernatant and the microtiter plates were first coated with goat anti rabbit IgG (Catalog # 115-005-008, Jackson Immunoresearch, West Grove, Pa.) rather than goat anti mouse IgG. All other details were the same.

[4] = Antibody 245J15, NNK amount for 50% inhibition divided by test compound amount, x100
[5] = Antibody 245J15, read-out: 50% Inhibition at: M
[6] = 0.5 B/Bo, read-out: 50% Inhibition at: M
[7] = Table 4, Antibody 245J15, parent compound vs N-nitroso derivative, read-out: 50% Inhibition at
[8] = Table 3, parent compound vs N-nitroso derivative, read-out: 50% Inhibition at

Row | SMILES | 50% Inhibition at: ppm ([1]; Antibody 245J15) | % Crossreactivity [1, 4] | IC50 [1, 5] | 50% Inhibition at: Ppm ([2]; 0.5 B/Bo) | IC50 [2, 6] | IC50 [1, 7] | IC50 [2, 8] | other results
1 | CN(N=O)C(CCC=O)c1cccnc1 (centres unmarked) [NNA, 4-(methylnitrosamino)4-(3-pyridyl)butanal] | 0.56 ppm | 10.8% | 2.7 µM | 18.00 Ppm | 87 µM | – | – | % Crossreactivity [2]: 0.0075%
2 | O=NN1CC=CC[C@H]1c1cccnc1 [NAT, N-nitrosoanatabine] | 0.13 ppm | 46.3% | 0.68 µM | 0.35 Ppm | 1.8 µM | 0.68 µM | 1.8 µM | Crossreactivity at the 50% point [3]: 1.7%
3 | OC1CCNC1 (centres unmarked) [3-Pyrrolidinol] | 5373.9 ppm | 0.001% | 62000 µM | – | – | – | – | –
4 | CCCCNCCCC [Dibutylamine] | – | – | – | – | – | > 50000 µM | > 50000 µM | –
5 | O=NN1CCCC1 [N-Nitrosopyrrolidine] | – | – | – | – | – | 5000 µM | 3000 µM | –
6 | CN(CCCC(O)c1cccnc1)N=O (centres unmarked) [NNAL, 4-(methylnitrosamino)-1-(3-pyridyl)-1-butanol] | 0.05 ppm | 129.6% | 0.22 µM | 0.06923 Ppm | 0.33 µM | – | – | –
7 | c1cncc([C@@H]2CCCCN2)c1 [Anabasine] | 214.9 ppm | 0.028% | 1300 µM | >200 Ppm | > 1000 µM | 1300 µM | > 1000 µM | % Crossreactivity [2]: <0.0002%
8 | O=NN1CCCC[C@H]1c1cccnc1 [NAB, N-nitrosoanabasine] | 0.72 ppm | 8.3% | 3.8 µM | 1.35 Ppm | 7.1 µM | 3.8 µM | 7.1 µM | Crossreactivity at the 50% point [3]: 1.6%
9 | Cl.OC1CCCNC1 (centres unmarked) [3-Hydroxypiperidine hydrochloride] | 17492.7 ppm | 0% | – | – | – | – | – | –
10 | C1=CCC(c2cccnc2)NC1 (centres unmarked) [Anatabine] | 8.3 ppm | 0.7% | 52 µM | 311.06 Ppm | 1900 µM | 52 µM | 1900 µM | % Crossreactivity [2]: 0.0004%
11 | C1CCNCC1 [Piperidine] | 1300.3 ppm | 0.005% | 15000 µM | – | – | – | – | –
12 | CN(CCCC(=O)c1cccnc1)N=O [NNK, 4-(methylnitrosamino)-1-(3-pyridyl)-1-butanone] | 0.06 ppm | 100% | 0.29 µM | 0.00135 Ppm | 0.0065 µM | – | – | sensitivity at the 50% inhibition point ([3]; 1:250,000 dilution of antisera): 0.1 μg NNK per ml; % Crossreactivity [2]: 100.00%
13 | O=C(O)C1CCCNC1 (centres unmarked) [Nipecotic Acid] | 24193.5 ppm | – | – | – | – | – | – | –
14 | c1ccncc1 [Pyridine] | – | – | – | – | – | – | – | 50% Inhibition at: ppm [1]: 946.9 ppm; % Crossreactivity [1]: 0.006%; IC50 ([1]; read-out: 50% Inhibition at: M): 12000 µM
15 | C1CCNC1 [Pyrrolidine] | – | – | – | – | – | 20000 µM | 20000 µM | –
16 | c1cncc([C@@H]2CCCN2)c1 [Nornicotine] | 223.1 ppm | 0.027% | 1500 µM | >200 Ppm | > 1000 µM | 1500 µM | > 1000 µM | % Crossreactivity [2]: <0.0002%
17 | CCCCN(CCCC)N=O [N-Nitrosodibutylamine] | – | – | – | – | – | 10000 µM | 16000 µM | –
18 | O=C1CCCN1 [2-Pyrrolidinone] | 2594 ppm | 0.002% | 30000 µM | – | – | – | – | –
19 | OC[C@@H]1CCCN1 [(S)-(+)-2-Pyrrolidine-methanol] | 996.7 ppm | 0.006% | 9900 µM | – | – | – | – | –
20 | OC[C@H]1CCCN1 [(R)-(−)-2-Pyrrolidine-methanol] | 1898.1 ppm | 0.003% | 19000 µM | – | – | – | – | –
21 | CN1CCC(O)C1 (centres unmarked) [1-Methyl-3-pyrrolidinol] | 92.7 ppm | 0.065% | 920 µM | – | – | – | – | –
22 | CN1CCCC1CCO (centres unmarked) [1-Methyl-2-pyrrolidineethanol] | 1264.4 ppm | 0.005% | 9800 µM | – | – | – | – | –
23 | CN1CCCC[C@H]1c1cccnc1 [Methyl Anabasine] | 30.2 ppm | 0.2% | 180 µM | 271.90 Ppm | 1600 µM | – | – | % Crossreactivity [2]: 0.0005%
24 | CN1CCCCC1CO (centres unmarked) [1-Methyl-2-piperidinemethanol] | 781.4 ppm | 0.008% | 6000 µM | – | – | – | – | –
25 | O=C(O)C1CCCCN1 (racemic) [DL-Pipecolinic Acid] | 13630.2 ppm | 0% | – | – | – | – | – | –
26 | Cl.OC1CCNCC1 [4-Hydroxypiperidine hydrochloride] | 12282.5 ppm | 0% | 89000 µM | – | – | – | – | –
27 | CN1CCCC1c1cccnc1 (centres unmarked) [Nicotine] | 80.9 ppm | 0.074% | 500 µM | 16.88 Ppm | 100 µM | – | – | Crossreactivity at the 50% point [3]: 0.024%; % Crossreactivity ([1]; Antibody 245J15, NNK amount for 50% inhibition divided by test compound amount, x100, listed as Nicotine (Acros)): 0.034%; 50% Inhibition at: ppm ([1]; Antibody 245J15, listed as Nicotine (Acros)): 178.9 ppm; IC50 ([1]; Antibody 245J15, listed as Nicotine (Acros), read-out: 50% Inhibition at: M): 1100 µM
